Columns and labels:
[1] = test system: HCT116 cells; format: cell-based; settings: HCT116 colon cancer cells, incubation over 72 hours, Alamar Blue, result in words
Protocol: HCT116 cells from a colon cancer cell line were cultured in McCoy's 5A medium (GIBCO) supplemented with 10% fetal bovine serum. HCT116 cells were inoculated on a 96 well plate (5000 cells/well) followed by overnight incubation. The test compound diluted with the medium was added to the medium in a final concentration of 0.1 to 30 μM (final DMSO concentration, 1%). After incubation for over 72 hours, Alamar Blue reagent was added to the medium. Two hours after the addition, a ratio of fluorescent intensity at an excitation wavelength of 530 nm to that at an emission wavelength of 590 nm was measured to determine the IC50.

[2] = molecular target: T1, bovine p110α (Bos taurus, UniProt P32871); experiment: Inhibition of PI3K (p110α subtype); format: biochemical; settings: compared with known PI3K inhibitor LY294002
T1 construct: made in house
Protocol: The resulting mixture was stirred and then centrifuged. After the organic layer was extracted twice with 150 μl of MeOH/1M HCl (1:1). The radioactivity was measured using Cerenkov light.

[3] = test system: A375 cells; experiment: Melanoma cell growth inhibition; format: cell-based; settings: Homo sapiens, A-375, incubation over 46 hours, Alamar Blue
Protocol: A375 cells from a melanoma cell line were cultured in DMEM medium (GIBCO) supplemented with 10% fetal bovine serum. A375 cells at 10,000 cells/100 μl were added to a 96 well plate which contained 1 μl/well of the test compounds (final concentration of 0.001˜30 μM). After incubation for over 46 hours, Alamar Blue reagent was added to the medium (10 μl/well). Two hours after the addition, a ratio of fluorescent intensity at an excitation wavelength of 530 nm to that at an emission wavelength of 590 nm was measured to determine the IC50 of the test compounds in the same manner as in the above examples.

T1 sequence (P32871 whole entry): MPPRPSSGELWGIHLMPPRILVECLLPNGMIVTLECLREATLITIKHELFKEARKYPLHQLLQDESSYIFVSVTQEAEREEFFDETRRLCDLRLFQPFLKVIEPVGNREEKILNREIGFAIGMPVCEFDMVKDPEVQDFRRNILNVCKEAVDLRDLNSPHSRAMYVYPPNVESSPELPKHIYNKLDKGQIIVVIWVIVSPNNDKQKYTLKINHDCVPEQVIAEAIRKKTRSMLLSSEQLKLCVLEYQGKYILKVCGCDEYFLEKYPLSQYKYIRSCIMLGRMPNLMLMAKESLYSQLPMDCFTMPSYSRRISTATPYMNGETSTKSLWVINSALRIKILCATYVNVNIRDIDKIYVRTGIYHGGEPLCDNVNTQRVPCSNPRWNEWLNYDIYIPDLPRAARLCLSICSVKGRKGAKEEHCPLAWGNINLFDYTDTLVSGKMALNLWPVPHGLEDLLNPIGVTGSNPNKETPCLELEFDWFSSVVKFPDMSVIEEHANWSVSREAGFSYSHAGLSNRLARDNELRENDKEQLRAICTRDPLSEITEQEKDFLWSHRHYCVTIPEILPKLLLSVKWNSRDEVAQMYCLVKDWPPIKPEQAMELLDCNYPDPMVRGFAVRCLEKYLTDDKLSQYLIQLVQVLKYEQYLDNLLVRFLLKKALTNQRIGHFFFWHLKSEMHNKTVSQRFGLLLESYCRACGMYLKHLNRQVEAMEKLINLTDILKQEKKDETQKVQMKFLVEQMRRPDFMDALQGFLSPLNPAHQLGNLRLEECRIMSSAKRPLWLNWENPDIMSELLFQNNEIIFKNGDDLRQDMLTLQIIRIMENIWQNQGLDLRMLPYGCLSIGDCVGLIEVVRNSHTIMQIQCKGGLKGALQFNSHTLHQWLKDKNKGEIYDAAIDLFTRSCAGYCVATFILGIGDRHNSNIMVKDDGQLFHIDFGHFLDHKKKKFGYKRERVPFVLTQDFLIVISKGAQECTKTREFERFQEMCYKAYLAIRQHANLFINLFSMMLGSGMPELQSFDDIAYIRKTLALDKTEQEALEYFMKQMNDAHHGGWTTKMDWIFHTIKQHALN

Row | SMILES | cancer cell growth inhibition activity [1] | PI3K inhibition, strength relative to LY294002 [2] | IC50 [3] [nM]
1 | Cc1ccc([N+](=O)[O-])cc1S(=O)(=O)n1ccc(-c2c(C)nc3ccc(Br)cn23)n1 [Compound 6, 3-(6-Bromo-2-methylimidazo[1,2-a]pyridin-3-yl)-1H-pyrazol-1-yl 2-methyl-5-nitrophenyl sulfone] | good cancer cell growth inhibition activity | more than 10 times | –
2 | Cc1ccc2ncc(C=NN(C)S(=O)(=O)c3cc([N+](=O)[O-])ccc3C)n2c1 [Compound 99, 1′,2-dimethyl-2′-[(6-methylimidazo[1,2-a]pyridin-3-yl)methylidene]-5-nitrobenzenesulfonohydrazide] | – | – | < 1000
